The data set in a line: Relative solubility of paracetamol in the release media. Type of data set: physicochemical. Particulars: in 20% ethanol compared with 0.01 M HCl; in words.

Data on one compound can be found in US20090274731A1, “PRODUCTION OF ENVELOPED PHARMACEUTICAL DOSAGE FORMS” (ABBOTT GMBH & CO. KG, priority 2006, published 2009).

With `CC(=O)Nc1ccc(O)cc1` [paracetamol], the solubility result is “distinctly more soluble”.
